Measured values reported in patent US20080201790A1, “Method and product for regulating cell responsiveness to external signals” (priority 1993, published 2008).

How the values were obtained:
Raf [1] = experiment: Raf activation assay (immunoprecipitated Raf, kinase-inactive MEK-1) in Rat 1a cells; assay type: cell-based
Experimental: (§1) Differential regulation of MEK in Rat 1a and NIH3T3 cells expressing gip2, v-src, v-ras, or v-raf led the present inventor to investigate the protein kinases that are putative regulators of MEK-1. Recently, it was shown that Raf-1 can phosphorylate and activate MEK. […] Cells were serum starved and challenged in the presence or absence of the appropriate growth factors, as described above. […] Cells were lysed by scraping in ice cold RIPA buffer (50 mM Tris, pH 7.2, 150 mM NaCl, 0.1% SDS, 0.5% sodium deoxycholate, 1.0% Triton X 100, 10 mM sodium pyrophosphate, 25 mM sodium glycerophosphate, 2 mM sodium vanadate, 2.1 μg/ml aprotinin) and were microfuged for 10 min to remove nuclei. The supernatants were normalized for protein content and precleared with protein A Sepharose prior to immunoprecipitation with rabbit antiserum to the C terminus of Raf-1 and protein A Sepharose for 2-3 h at 4° C. The beads were washed twice with ice cold RIPA and twice with PAN (10 mM Pipes, pH 7.0, 100 mM NaCl, 21 μg/ml aprotinin). A portion of the immunoprecipitate was diluted with SDS sample buffer and used for immunoblot analysis. […] Wild type recombinant MEK-1 was autophosphorylated in parallel as a marker. Reactions were terminated by the addition of 12.5 μl 5×SDS sample buffer, boiled for 5 minutes and subjected to SDS-PAGE and autoradiography.

98 kD PC12 cell MEKK = experiment: MEKK immunoprecipitate kinase assay from PC12 cells with kinase inactive MEK-1; assay type: cell-based; conditions: serum starved PC12 cells
Experimental: Reactions were stopped by the addition of 2×SDS sample buffer (20 μl). The samples were boiled for 3 minutes and subjected to SDS-PAGE and autoradiography. Raf-B was immunoprecipitated from the same untreated and treated PC12 cell lysates as above with an antiserum to a COOH-terminal peptide of Raf-B (Santa Cruz Biotechnology, Inc.) and assayed similarly. Raf-1 was immunoprecipitated with an antiserum to the 12 COOH-terminal amino acids of Raf-1 (Santa Cruz Biotechnology, Inc.).
Data represent the relative magnitude of the response for each timepoint as quantitated by phosphorimager analysis of radioactive gels from a typical experiment.
Expression of N^17Ras was induced in PC12 clones stably transfected with the N^17Ras gene by the addition of dexamethasone to the starvation media. […] PC12 cell clones stably transfected with the N^17Ras gene are less responsive to EGF-mediated activation of MEKK activity than are wild type PC12 cells. […] MEKK activity in immunoprecipitates or column fractions was dissociable from that of EGF-stimulated c-Raf-1 and Raf-B activities.
To determine whether the growth factor-mediated activation of 98 kD PC12 cell MEKK was inhibited by PKA, forskolin was used to elevate intracellular cAMP and activate PKA. […] Raf-B activity was also assayed from the same cell lysates to test whether its regulation differed from that of MEKK. Raf-B was immunoprecipitated from the same cell lysates as described above and assayed for its ability to phosphorylate MEK-1 as described above.

MEKK1 = experiment: Cellular localization of MEKK1 in Swiss 3T3 cells, antibody staining; assay type: cell-based; conditions: serum starved Swiss 3T3 cells, 10 minutes
Description: (§2) Cells were fixed and stained with an antibody specifically recognizing either MEKK1 or MEKK2. Secondary FITC-conjugated anti-rabbit IgG antibody was used for staining.

Raf [2] = experiment: Raf activation assay (immunoprecipitated Raf, kinase-inactive MEK-1) in NIH3T3 cells; assay type: cell-based
Experimental: as §1

Raf-B = Raf-B immunoprecipitate kinase assay from PC12 cells with kinase inactive MEK-1; assay type: cell-based; conditions: EGF 30 ng/ml, serum starved PC12 cells
MEKK2 = experiment: Cellular localization of MEKK2 in Swiss 3T3 cells, antibody staining; assay type: cell-based; conditions: serum starved Swiss 3T3 cells, 10 minutes
Description: as §2

MEK = MEK activity in cell lysates from thrombin stimulated Rat 1a cells; assay type: cell-based
Description: This Example Describes the Determination of Whether a Similar or Distinct MEK Activity is Involved in Activation of MAPK Though Gi Protein Coupled Receptors by Measuring MEK Activity in Cell Lysates from Thrombin Stimulated Rat 1a Cells

MAPK = experiment: Thrombin stimulation of MAPK; assay type: cell-based
GST-Ras^V12 = experiment: Binding of COS cell-expressed MEKK1 proteins to GST-Ras^V12 agarose; conditions: COS cell lysates, immunoblot
Description: COS cells were transiently transfected by the DEAE-dextran protocol as generally described in Example 3. Cos cells were transfected with: (1) p-MEKK1 containing a nucleic acid molecule encoding MEKK1 as described in Lange-Carter et al. (Science 260:315-319, […]); (2) p-MEKKNH2 containing a nucleic acid molecule that encodes a 858 base pair Pvull(682)-Ncol(1541) restriction digest fragment of the amino terminus of MEKK1 ligated into pCMV5; (3) p-MEKKCOOH containing a nucleic acid molecule that encodes a 1435 base pair Ncol(1541)-Sspl(2976) restriction digest fragment that includes the entire kinase domain of MEKK1 ligated into pCMV5; (4) pCMV5 without insert; or (5) p-C4Raf containing a nucleic acid molecule that encodes the amino terminus of Raf-1 ligated into pCMV5. COS cells expressing the various MEKK1 proteins were […] COS cells expressing the various MEKK1 proteins were lysed in EB (1% Triton X-100, 10 mM Tris HCl [pH 7.4], 5 mM EDTA, 50 mM NaCl, 50 mM NaF, 0.1% bovine serum albumin, 0.2 U/ml aprotinin, 1 mM phenylmethylsulfonyl fluoride and 2 mM Na3 VO4). The lysates were separated into two equal parts for separate binding reactions. Half of the lysate was incubated with GST agarose (1.5 μg) while half of the lysate was incubated with GST-Ras^V12 agarose (1.5 μg) (purchased from UBI) for 1 hr at 4° C. […]

GST-Cdc42 = GST-Cdc42 (Homo sapiens, UniProt P60953); experiment: Binding of MEKK4 to GST fusion protein on glutathione-Sepharose, Cdc42
Sequence of GST-Cdc42 (P60953 whole entry, the tested form may be a part): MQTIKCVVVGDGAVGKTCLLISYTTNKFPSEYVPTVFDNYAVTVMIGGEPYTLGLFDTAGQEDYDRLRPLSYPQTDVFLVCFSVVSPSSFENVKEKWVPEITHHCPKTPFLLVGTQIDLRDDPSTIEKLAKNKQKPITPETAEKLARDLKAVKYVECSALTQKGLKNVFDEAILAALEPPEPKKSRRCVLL
Experimental: (§3) GST fusion proteins encoding Cdc42 or Rac loaded with either GTPγs or GDP were incubated with MEKK4 using previously described methods (Russell, M. et al. (1995) J. Biol. Chem. 270:11757-11760). The source of MEKK4 was either from a Cos cell transient transfection or a recombinant MEKK4 protein expressed in E. coli. The recombinant MEKK4 protein was truncated to express residues from 1261-1597 of the full length protein. A GST fusion protein of Ha-Ras was used as a control. The MEKK4 protein was incubated for 1 hr at 4° C. with either GST-Cdc42, GST-Rac or GST-Ras bound to glutathione-Sepharose beads. Each GST fusion protein had GTPγs or GDP bound to the Cdc42, Rac or Ras moiety of the fusion protein. Following the incubation the beads were washed extensively and the bound proteins removed in SDS-Laemmli buffer and resolved by SDS-PAGE using 10% acrylamide gels. The proteins were transferred to nitrocellulose and immunoblotted using a MEKK4 specific antibody recognizing the extreme COOH-terminus of MEKK4. […] The GDP bound forms of GST-Cdc42 and GST-Rac bound less than 10% of the MEKK4 bound in the presence of GTPγs.

GST-Rac = GST-Rac (Homo sapiens, UniProt P63000); experiment: Binding of MEKK4 to GST fusion protein on glutathione-Sepharose, Rac
Experimental: as §3

GST-Ras = GST-Ras (Homo sapiens, UniProt P01112); experiment: Binding of MEKK4 to GST fusion protein on glutathione-Sepharose, Ras; conditions: GTPγS or GDP bound form
Sequence of GST-Ras (P01112 whole entry, the tested form may be a part): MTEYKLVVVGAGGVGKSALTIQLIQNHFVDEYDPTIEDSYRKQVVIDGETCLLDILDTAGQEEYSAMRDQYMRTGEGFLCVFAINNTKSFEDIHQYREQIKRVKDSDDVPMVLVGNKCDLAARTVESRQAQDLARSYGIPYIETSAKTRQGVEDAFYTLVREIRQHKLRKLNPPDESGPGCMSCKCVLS
Experimental: as §3

[3] = system: Swiss 3T3 cells and REF52 cells; experiment: Beauvericin-induced apoptosis, anti-tubulin and propidium iodide staining; assay type: cell-based; conditions: 50 μM, 6 hours at 37° C.
Experimental: A first group of transfected Swiss 3T3 cells and REF52 cells were treated with 50 μM beauvericin for 6 hours at 37° C. Beauvericin is a compound known to induce apoptosis in mammalian cells. A second group of cells were treated with a control buffer lacking beauvericin. The treated cells were then fixed in paraformaldehyde and permeabilized with saponin using protocols standard in the art. The permeabilized cells were then labelled by incubating the cells with a fluorescein-labelled anti-tubulin antibody (1:500; obtained from GIBCO, Gaithersburg, Md.) to detect cytoplasmic shrinkage or 10 μM propidium iodide (obtained from Sigma, St. Louis, Mo.) to stain DNA to detect nuclear condensation. The labelled cells were then viewed by differential fluorescent imaging using a Nikon Diaphot fluorescent microscope.

Substance: EGF: human EGF, epidermal growth factor
- Raf catalyzed phosphorylation of MEK-1 (Raf [1]; Gip2 expressing Rat 1a cells): 1.8 fold
- Raf phosphorylation of recombinant MEK-1 over basal (Raf [1]; Rat 1a cells): approximately 2.6 fold
- Raf catalyzed phosphorylation of MEK-1 (Raf [1]; v-Src expressing Rat 1a cells): 1.4 fold
- persistence of MEKK activation (98 kD PC12 cell MEKK; EGF 30 ng/ml): at least 30 minutes
- MEKK activity after stimulation (in words) (98 kD PC12 cell MEKK; 5 minutes): increased MEKK activity
- cellular localization of MEKK1 (MEKK1): induced a dramatic translocation of MEKK1 to the plasma membrane
- activation of Raf (Raf [2]): approximately 2.7 fold
- time of peak Raf-B activity (Raf-B): 3 to 5 min
- cellular localization of MEKK2 (MEKK2): did not effect the cellular localization of MEKK2

Substance: thrombin
- activation of Raf (in words) (Raf [1]; Rat 1a cells): did not measurably activate Raf
- magnitude of MEK activity relative to EGF stimulation (MEK): two to three-fold less
- stimulation of MEK over basal (MEK): two to three-fold over basal
- time of maximal stimulation of MAPK (MAPK): 3 min
- activation of Raf (in words) (Raf [2]): does not

Substance: C4Raf: amino terminus of Raf-1 encoded by p-C4Raf [reference compound]
- binding to GST-Ras^V12 (in words) (GST-Ras^V12): bound to GST-Ras^V12(GTPγS) agarose

Substance: MEKK4: MEK kinase 4 protein, SEQ ID No. 12 / 14
- binding to Cdc42 in the GTPγS form (GST-Cdc42; 1 hr at 4° C., immunoblot): specifically bound
- MEKK4 bound by GDP form relative to GTPγs form (GST-Cdc42; GST-Cdc42): less than 10%
- binding to Rac in the GTPγS form (GST-Rac; 1 hr at 4° C., immunoblot): specifically bound
- MEKK4 bound by GDP form relative to GTPγs form (GST-Rac; GST-Rac): less than 10%
- binding to Ras (GST-Ras): did not bind significantly

Substance: beauvericin
- morphology characteristic of apoptosis [3]: cytoplasmic shrinkage (monitored by the anti-tubulin antibodies) and nuclear condensation
